Key:
[1] = system: B16F10-Cas9 cells pulsed with SIINFEKL peptide, co-cultured with OT-I T cells; experiment: Genome-scale CRISPR-Cas9 screen, selection with OT-I T cells; assay type: cell-based, mouse; details: for OT1 (sgRNA Log(2) fold change, OT-I selection versus control T cells): Table 3, B16F10-Cas9 cells pulsed with SIINFEKL, co-cultured with OT-I T cells 1:1 for one day, negative = depleted, positive = enriched; for logFC: Log2 fold change of gRNAs per gene, OT-I screen, genes depleted (FDR < 0.05)
[2] = system: B16F10-Cas9 cells co-cultured with Pmel-1 T cells; experiment: Genome-scale CRISPR-Cas9 screen, selection with Pmel-1 T cells; assay type: cell-based, mouse; details: for Pmel+ (sgRNA Log(2) fold change, Pmel-1 selection versus control T cells): Table 3, B16F10-Cas9 cells pre-treated with IFNγ, co-cultured with Pmel-1 T cells 1:1 for three days, negative = depleted, positive = enriched; for logFC: Log(2) fold change of gRNAs per gene, genes depleted in Pmel-1 screen

Substance | OT1 (sgRNA Log(2) fold change, OT-I selection versus control T cells) [1] | Pmel+ (sgRNA Log(2) fold change, Pmel-1 selection versus control T cells) [2] | logFC [2] | logFC [1]
AAAAATTCAACGTTGAAACA (chemistry not fully specified) | -1.37 | -3.43 |  | 
AAAACGGTCTCAAGCCAATG (chemistry not fully specified) | -3.05 | 1.05 |  | 
AAACAAGAGCACACTCCCCG (chemistry not fully specified) | -2.06 | 1.49 |  | 
AAACATATAGTGTACCTCTA (chemistry not fully specified) | 2.36 | 10.21 |  | 
AACTTCAGTAGCGGGCGACG (chemistry not fully specified) | -2.23 | 0.00 |  | 
AAGACATATAGTTATCAGCA (chemistry not fully specified) | -2.22 | -1.83 |  | 
AAGGGCCACTTACAATTAGG (chemistry not fully specified) | -0.44 | 2.10 |  | 
AAGTCCTAGATAAAGCACAT (chemistry not fully specified) | 3.13 | 3.43 |  | 
AATGCTGACGACTTTCAATG (chemistry not fully specified) | -2.31 | 0.00 |  | 
ACACAACGCTAAGACAGTCG (chemistry not fully specified) | -3.60 | -0.22 |  | 
ACAGATACGGAGTGTCCCGT (chemistry not fully specified) | 2.85 | 1.90 |  | 
ACAGCCTCCCAATATCTCAG (chemistry not fully specified) | -3.56 | -0.54 |  | 
ACAGGGAAAGCATGGGACAC (chemistry not fully specified) | -2.35 | 0.76 |  | 
ACATTGATACGCACACTCAC (chemistry not fully specified) | -2.37 | 1.41 |  | 
ACCTCCGAATGATCAATGGG (chemistry not fully specified) | -2.52 | -0.84 |  | 
ACGACGAGGAGTTCGAATAC (chemistry not fully specified) | -2.76 | -0.86 |  | 
ACGCAATGAAAAGGTTTAGG (chemistry not fully specified) | -2.24 | 2.19 |  | 
ACTAATGGACTCGCACACGT (chemistry not fully specified) | -0.42 | 2.09 |  | 
ACTCACTCTGGATAGCATAC (chemistry not fully specified) | 5.27 | 3.80 |  | 
ACTCGTACAGCTCCTGTGGT (chemistry not fully specified) | 0.67 | 2.62 |  | 
ACTTCAAAGTCCATGGCACA (chemistry not fully specified) | -2.45 | -0.63 |  | 
ACTTCTGATTGGCGATTCTG (chemistry not fully specified) | -3.78 | -2.49 |  | 
AGAAGCCACTCGGACTACTG (chemistry not fully specified) | -0.30 | 2.77 |  | 
AGAAGGCAGGCAGAGTGGTG (chemistry not fully specified) | -2.13 | -0.75 |  | 
AGAGATCTGCGCCATTTAAG (chemistry not fully specified) | -3.28 | -0.91 |  | 
AGATTGTCAACAATGGAACT (chemistry not fully specified) | -2.17 | 0.00 |  | 
AGCGTATAATCTTCGATCAG (chemistry not fully specified) | -2.46 | 1.35 |  | 

Substance | OT1 (sgRNA Log(2) fold change, OT-I selection versus control T cells) [1] | Pmel+ (sgRNA Log(2) fold change, Pmel-1 selection versus control T cells) [2] | logFC [2] | logFC [1]
AGGGAACCTCACTTCCAAGT (chemistry not fully specified) | 3.12 | 4.83 |  | 
AGGTCACAATGTACCAACCC (chemistry not fully specified) | -1.71 | -2.61 |  | 
AGTTGGATCGCGAATAAAGA (chemistry not fully specified) | -2.70 | -2.35 |  | 
AGTTTGGAGCCCAGTAGGCA (chemistry not fully specified) | -2.77 | -2.19 |  | 
ATACACAACTATGATGCCAT (chemistry not fully specified) | -1.48 | 5.64 |  | 
ATAGAAATCTGACACTGCCG (chemistry not fully specified) | -2.12 | 0.00 |  | 
ATAGCACCAAAGCCTAACAA (chemistry not fully specified) | -2.27 | 0.00 |  | 
ATCACCTGGAGCATGCAGGA (chemistry not fully specified) | -0.29 | 2.72 |  | 
ATGAGGTACAGCAGAAAGGT (chemistry not fully specified) | -2.05 | 0.90 |  | 
ATGCAGATAATCCGCCAAAG (chemistry not fully specified) | -2.49 | 0.00 |  | 
ATGGGATTGATCGTTACTGG (chemistry not fully specified) | -2.32 | 0.00 |  | 
ATGTTGCCATCGTCACTGCA (chemistry not fully specified) | 0.41 | 3.04 |  | 
ATTTCAAGAGATTCTATGCT (chemistry not fully specified) | -2.59 | 1.73 |  | 
ATTTGGATTTCAATGTGAGG (chemistry not fully specified) | 5.19 | 3.20 |  | 
CAAAGTCTGCTGTCCGACCT (chemistry not fully specified) | 0.41 | 2.57 |  | 
CAAGAGCCAGACCTTGGATG (chemistry not fully specified) | -2.86 | 0.41 |  | 
CAATAATGCTGGTCTACGTG (chemistry not fully specified) | 0.89 | 2.58 |  | 
CACACCCTTACTGCCCGTCG (chemistry not fully specified) | -2.48 | -1.34 |  | 
CACCGGATCGTCCAATTCCG (chemistry not fully specified) | -2.82 | -0.88 |  | 
CACTGCGAGACCAATCTAGA (chemistry not fully specified) | 1.44 | 2.24 |  | 
Cd36 (guide TAGGATATGGAACCAAACTG; chemistry not fully specified) |  |  | −2.18 | 
Chic2 (guide GCTCAAGTACTCGCCCGACC; chemistry not fully specified) |  |  |  | −2.09
Ctps |  |  |  | −1.69
Mrps21 (guide GCGTCGTCGACTTATGACTT; chemistry not fully specified) |  |  |  | −2.09
Nudcd2 (guide GGTTCCTTGCGGGACTCCGT; chemistry not fully specified) |  |  |  | −2.09
Sepsecs (guide CACCGGATCGTCCAATTCCG; chemistry not fully specified) |  |  |  | −2.62
Tial1 (guide AATGCAATTGTGCATATGGG; chemistry not fully specified) |  |  | −2.01 | 

— patent publication US11820822B2, “Methods for sensitizing cancer cells to T cell-mediated killing by modulating molecular pathways” (DANA-FARBER CANCER INSTITUTE, INC., priority 2017, dated 2023)
